Holding throughout (assay): DTP human tumour cell line panel, 48 h
In test [1] the test system is SK-MEL-5 melanoma.
The subject of test [2] is OVCAR-3 ovarian.
In test [3] the test system is A549 NSCLC.
The test system of test [4] is SF-268 CNS.
The test system of test [5] is MOLT-4 leukemia.
Test [6] relates to TK-10 renal.
The test system of test [7] is UACC-62 melanoma.
The subject of test [8] is SNB-75 CNS.
In test [9] the test system is SK-OV-3 ovarian.
Test [10] deals with SF-295 CNS.

“And” between values parts separate entries of the source, which are not always exact repeats. Equal values may be shown once.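 These data come from cells grown in 96-well plates and exposed to compound for 48 hours at five concentrations. GI50 is the concentration that inhibits growth by half. At the TGI there is no net growth.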

On to `CC[C@H](CC#N)OC(=O)N[C@@H](C)c1cccc(NC(=O)Nc2ccc(-c3cnco3)c(OC)c2)c1`, for which the concentration for 50% growth inhibition (GI50) (in general, the concentration at which growth is held to half of that of the control) in test [1] is 0.18 µM; in [2], 0.0894 µM; in test [3], 0.0336 µM; in test [4], 0.074 µM; in [5], 0.0403 µM; in test [6] it was 0.171 µM. Moreover, the concentration for 50% growth inhibition (GI50) in test [7] is 0.141 µM; in test [8] it was 0.11 µM; in [9] it was 0.0722 µM; in [10], 0.0532 µM. Besides, the TGI (usually the concentration giving total growth inhibition) in test [1] is 16.4 µM; in test [2] it was 45 µM; in [3], 20.9 µM; in test [4] it was 51.3 µM; in test [5] it was 13.8 µM; in test [6], 28.3 µM. Besides, the TGI was 24.5 µM in test [7], 27.8 µM in test [8], over 63.8 µM in test [9] and 13 µM in [10].
Take `CCOC(=O)NN1C(=O)C(=P(c2ccccc2)(c2ccccc2)c2ccccc2)C(C(=O)OCC)=C1C`: the concentration for total growth inhibition (TGI) in test [1], in [2], in test [3], in test [4], in [5] and in test [6] was over 100 µM throughout. Also, the TGI in test [7], in test [8], in test [9] and in test [10] was over 100 µM each time.
For the compound `COc1cc(-c2cn(-c3ccc(Cl)cc3)c(C)c2C(=O)C(F)(F)F)cc(OC)c1OC`, the GI50 was 7.18 µM in test [1]; over 100 µM in test [2]; 17.9 µM in test [3]; over 100 µM in test [4]; 6.01 µM in [5]; over 100 µM in [6]. The GI50 was over 100 µM in test [7], 56.9 µM in [8], over 100 µM in [9] and over 100 µM in test [10]. Also, the total growth inhibition concentration (TGI) in test [1], in test [2], in test [3], in test [4], in test [5] and in [6] was over 100 µM in each case. Moreover, the total growth inhibition concentration (TGI) in test [7], in test [8], in [9] and in [10] was over 100 µM in each case.
With `Cc1cc(C(C#N)c2ccc(Cl)cc2)c(Cl)cc1NC(=O)c1cc(I)cc(I)c1O` (stereo not given), the GI50 was 3.09 µM and 14.2 µM in test [1]; 8.33 µM and 14.2 µM in test [2]; 13.6 µM and 21.3 µM in test [3]; 7.58 µM and 13.8 µM in test [4]; 4.74 µM and 22.6 µM in test [5]; 11.8 µM and 22.4 µM in [6]. For the same compound, the GI50 in test [7] was 2.96 µM and 8.79 µM; in test [8] it was 12.3 µM and 6.96 µM; in [9], 15.6 µM and 15.8 µM; in test [10], 3.22 µM and 10.9 µM. Moreover, the TGI is 11 µM and 27.3 µM in test [1]; 23.5 µM and 28.5 µM in test [2]; 56.3 µM and 44.5 µM in test [3]; 22.2 µM and 31.3 µM in [4]; 19.3 µM and 53.9 µM in test [5]; 33.9 µM and 65.4 µM in [6]. Further, the total growth inhibition concentration (TGI) in test [7] is 11.5 µM and 23.8 µM; in [8], 41.5 µM and 25.6 µM; in test [9], 29.2 µM and 29.5 µM; in test [10], 14.7 µM and 30.1 µM.
For `COc1ccc(O)c(C#N)c1C#N`, the TGI in test [1], in test [2], in test [3], in [4], in test [5] and in test [6] was over 100 µM throughout. Moreover, the TGI in [7], in test [8], in [9] and in test [10] was over 100 µM throughout.
With `Clc1nc(Cl)c2ncn(Cc3ccc(COc4cccc(OCc5ccc(Cn6cnc7c(Cl)nc(Cl)nc76)cc5)c4)cc3)c2n1`, the GI50 in test [1] was 14.3 µM; in [2], 10.7 µM; in [3] it was over 100 µM; in test [4], over 100 µM; in [5] it was 8.6 µM; in [6] it was 27 µM. In addition, the GI50 in test [7] was 34.7 µM; in test [8] it was 8.39 µM; in test [9] it was over 100 µM; in test [10], 98.4 µM. The TGI is 95.5 µM in test [1]; 56.6 µM in test [2]; over 100 µM in [3]; over 100 µM in [4]; over 100 µM in [5]; over 100 µM in test [6]. The TGI in test [7], in test [8], in [9] and in test [10] was over 100 µM in each case.
Turning to `COc1cc(/C=C/C(=O)c2sc(Nc3ccccc3)nc2C)ccc1O`, the TGI in test [1], in [2], in [3], in test [4], in test [5] and in test [6] was over 100 µM in each case. Besides, the total growth inhibition concentration (TGI) in test [7] was over 100 µM; in [8] it was 84.8 µM; in test [9] it was over 100 µM; in test [10] it was over 100 µM.
Consider `Cc1cccc(C(C)C)c1NC(=O)C(=O)CC(=O)c1c(C)n([O-])c2ccccc2[n+]1=O`, for which the total growth inhibition concentration (TGI) in test [1] was over 100 µM; in test [2] it was 22 µM; in test [3], over 100 µM; in test [4], over 100 µM; in test [5], 59.8 µM; in test [6], over 100 µM. The total growth inhibition concentration (TGI) was 42.4 µM in test [7], 71.1 µM in [8], over 100 µM in test [9] and over 100 µM in [10].
For `CCCCCCCCCCCCCC(=O)CBr`, the concentration for total growth inhibition (TGI) in test [1] was found to be 26.3 µM; in test [2], 39.9 µM; in test [3], 50.7 µM; in test [4], 20 µM; in [5], 2.9 µM; in [6] it was 29.7 µM. The concentration for total growth inhibition (TGI) in test [7] amounted to 17.9 µM; in test [8] it was 16 µM; in [9], 43.2 µM; in test [10] it was 29.3 µM.
With `COc1nc2nccc-2c2occn12`, the total growth inhibition concentration (TGI) in test [1], in [2], in test [3], in test [4], in [5] and in test [6] was over 100 µM throughout. The TGI in test [7], in test [8], in [9] and in test [10] was over 100 µM in each case.

Source of the values: PubChem BioAssay (NCI).
